Reference: patent US11834428B2, “Dihydromyricetin nanocrystals and preparation method and application thereof” (Shaanxi University of Science and Technology, priority 2022, dated 2023)
≈ marks a conversion by molar mass, not a printed value.

Columns and labels:
[1] = Particle size of dihydromyricetin nanocrystals; assay type: physicochemical; details: API
Method: In order to describe the dihydromyricetin nanocrystals provided by the disclosure, the relevant properties of the embodiments 1 to 6 and the comparative embodiments are measured. 1. The Effect of Stabilizers on the Particle Size and Solubilization Effect of the Dihydromyricetin Nanocrystals, See Table 1.

[2] = Solubility of dihydromyricetin nanocrystals and API (solubility in cold water); assay type: physicochemical; details: for solubility: cold water
Source text: 1. The Effect of Stabilizers on the Particle Size and Solubilization Effect of the Dihydromyricetin Nanocrystals, See Table 1.

- Particle size [1]: ≥12 μm
- solubility ([2]; aqueous with cosolvent or surfactant or cyclodextrin, stabilizer sodium dodecyl sulfate (SDS)): 300 µg/mL (≈ 937 µM)
- solubility ([2]; water, no stabilizer (/)): 40 µg/mL (≈ 125 µM)
- Solubility in cold water ([2]; stabilizer Tween-80): 600 µg/mL (≈ 1870 µM)
SMILES: O=C1c2c(O)cc(O)cc2O[C@H](c2cc(O)c(O)c(O)c2)[C@H]1O [Dihydromyricetin API, Dihydromyricetin]
